Experiment [1] relates to LNCap cells. The experiment can be described thus: Cell viability assay (CellTiterGlo). The experiment is classed as cell-based. The following applies: Homo sapiens, 144 h. (ATP-based viability assays read luminescence as a measure of living cells.)
Experiment [2] relates to 22Rv1 cells. The experiment can be described thus: Cell viability assay (CellTiterGlo). The following applies: Homo sapiens, 22Rv1, 144 h, read-out: 22RV1 (IC50, nM).
Description: Cell viability assay: LNCap, 22Rv1, MCF7, MDAMB361, T47D, and IEC6 cells were seeded at a density of 500-2000 cells/well in 96 well plates, and a ‘T0’ (timepoint 0) was included along with the assay plate. The plates were then incubated at 37° C., 5% CO2 in a cell culture incubator overnight. On the next day, the ‘T0’ plate was assayed using CellTiterGlo (Promega, Inc) according to the manufacturer's instructions. The appropriate compounds were diluted in DMSO and added to the assay plate (final DMSO concentration of 0.1-0.2%) on the next day. The assay plates were incubated for 6 days at 37° C., 5% CO2. After the incubation period, the plates were assayed using CellTiterGlo (Promega, Inc) according to the manufacturer's instructions and luminescence was read on the En Vision plate reader. […] GraphPadPrism was used to analyze the data and determine GI50/IC50 values.
Experiment [3] relates to IEC6 cells. The experiment can be described thus: Cell viability assay (CellTiterGlo). The following applies: Rattus norvegicus, IEC-6, 144 h, read-out: IEC-6 (IC50, nM).
Experiment [4] has as its target T1, AR (cytosol from LnCaP cells) (Homo sapiens, UniProt P10275, T878A).
T1 sequence (P10275 1-920 T878A): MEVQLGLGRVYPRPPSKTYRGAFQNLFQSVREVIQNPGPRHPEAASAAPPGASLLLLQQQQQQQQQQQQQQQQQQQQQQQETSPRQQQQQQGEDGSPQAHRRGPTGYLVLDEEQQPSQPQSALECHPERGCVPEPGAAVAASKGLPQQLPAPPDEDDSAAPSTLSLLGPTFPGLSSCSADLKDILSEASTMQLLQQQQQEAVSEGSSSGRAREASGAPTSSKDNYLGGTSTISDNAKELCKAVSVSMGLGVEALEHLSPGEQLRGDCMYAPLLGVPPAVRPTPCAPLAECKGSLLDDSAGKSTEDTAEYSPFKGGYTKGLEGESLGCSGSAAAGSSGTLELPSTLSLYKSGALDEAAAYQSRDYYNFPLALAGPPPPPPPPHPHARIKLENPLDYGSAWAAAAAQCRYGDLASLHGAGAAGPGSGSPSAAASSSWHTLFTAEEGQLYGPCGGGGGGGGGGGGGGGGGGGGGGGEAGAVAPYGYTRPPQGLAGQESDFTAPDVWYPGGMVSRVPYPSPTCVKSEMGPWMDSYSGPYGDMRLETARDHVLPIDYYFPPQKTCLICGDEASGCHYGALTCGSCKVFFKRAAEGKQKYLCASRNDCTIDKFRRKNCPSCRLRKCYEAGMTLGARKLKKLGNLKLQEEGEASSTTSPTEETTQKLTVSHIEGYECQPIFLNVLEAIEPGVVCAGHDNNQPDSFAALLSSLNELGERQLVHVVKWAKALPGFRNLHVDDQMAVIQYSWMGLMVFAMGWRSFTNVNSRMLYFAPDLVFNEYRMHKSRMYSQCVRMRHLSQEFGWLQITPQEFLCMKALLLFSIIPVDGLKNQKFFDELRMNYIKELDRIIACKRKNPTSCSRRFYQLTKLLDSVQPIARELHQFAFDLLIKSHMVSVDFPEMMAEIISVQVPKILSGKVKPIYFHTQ
The experiment can be described thus: AR binding assay (3H-R1881 displacement).
Description: The plate was then centrifuged at 3000 rpm for 30 minutes at 4° C.

[5] abbreviates: 6 days incubation, CellTiterGlo, read-out: LNCap (IC50).

The structures appear in SMILES notation. Where two headings read alike, the source gives them in different places.

This is an account of results in patent publication US20260102501A1, “ANTI-CANCER NUCLEAR HORMONE RECEPTOR-TARGETING COMPOUNDS” (Nuvation Bio Inc., priority 2022, published 2026).

As a reminder, the IC50 is the concentration needed to halve the response being measured. For `CC[C@@]1(O)C(=O)OCc2c1cc1n(c2=O)Cc2cc3c(CN4CCN(C(=O)C5CCN(c6ccc(C(=O)N[C@H]7CC[C@H](Oc8ccc(C#N)c(Cl)c8)CC7)nn6)CC5)CC4)c(OC(=O)N4CCN(C)CC4)ccc3nc2-1` [Compound No. 10, (S)-10-((4-(1-(6-(((1r,4r)-4-(3-Chloro-4-cyanophenoxy)cyclohexyl)carbamoyl)pyridazin-3-yl)piperidine-4-carbonyl)piperazin-1-yl)methyl)-4-ethyl-4-hydroxy-3,14-dioxo-3,4,12,14-tetrahydro-1H-pyrano[3′,4′:6,7]indolizino[1,2-b]quinolin-9-yl 4-Methylpiperazine-1-carboxylate], the IC50 was > 1000 nM in experiment [1] (read-out: LNCap (IC50, nM)); > 1000 nM in experiment [2]; > 1000 nM in experiment [3]; 10 to 100 nM in experiment [4].
Regarding `CC[C@@]1(O)C(=O)OCc2c1cc1n(c2=O)Cc2cc3c(CN(C)C)c(OC(=O)N4CCN(CC5CCN(c6ccc(N7C(=S)N(c8ccc(C#N)c(Cl)c8)C(=O)C7(C)C)cc6)CC5)CC4)ccc3nc2-1` [Compound 58, (S)-10-((dimethylamino)methyl)-4-ethyl-4-hydroxy-3,14-dioxo-3,4,12,14-tetrahydro-1H-pyrano[3′,4′:6,7]indolizino[1,2-b]quinolin-9-yl 4-((1-(4-(3-(3-chloro-4-cyanophenyl)-5,5-dimethyl-4-oxo-2-thioxoimidazolidin-1-yl)phenyl)piperidin-4-yl)methyl)piperazine-1-carboxylate], the IC50 in experiment [1] (read-out: LNCap (IC50, nM)) was 101 to 1000 nM; in experiment [2] it was 10 to 100 nM; in experiment [3] it was 101 to 1000 nM; in experiment [4], 10 to 100 nM.
For `CC[C@@]1(O)C(=O)OCc2c1cc1n(c2=O)Cc2cc3c(CN4CCN(C(=O)C5CCN(c6ccc(C(=O)N[C@H]7CC[C@H](Oc8ccc(C#N)c(Cl)c8)CC7)nn6)CC5)CC4)c(OC(=O)N(C)c4ccccc4)ccc3nc2-1` [Compound 2, (S)-10-((4-(1-(6-(((1r,4r)-4-(3-Chloro-4-cyanophenoxy)cyclohexyl)carbamoyl)pyridazin-3-yl)piperidine-4-carbonyl)piperazin-1-yl)methyl)-4-ethyl-4-hydroxy-3,14-dioxo-3,4,12,14-tetrahydro-1H-pyrano[3′,4′:6,7]indolizino[1,2-b]quinolin-9-yl Methyl(phenyl)carbamate], the IC50 is > 1000 nM in experiment [1] (read-out: LNCap (IC50, nM)); > 1000 nM in experiment [2]; 101 to 1000 nM in experiment [4].
Turning to `CC[C@@]1(O)C(=O)OCc2c1cc1n(c2=O)Cc2cc3c(CN(C)C)c(OC(=O)N4CCN(C(=O)CCCCCNC(=O)c5ccc(N6C(=S)N(c7ccc(C#N)c(C(F)(F)F)c7)C(=O)C6(C)C)cc5F)CC4)ccc3nc2-1` [Compound 9, (S)-10-((Dimethylamino)methyl)-4-ethyl-4-hydroxy-3,14-dioxo-3,4,12,14-tetrahydro-1H-pyrano[3′,4′:6,7]indolizino[1,2-b]quinolin-9-yl 4-(6-(4-(3-(4-cyano-3-(trifluoromethyl)phenyl)-5,5-dimethyl-4-oxo-2-thioxoimidazolidin-1-yl)-2-fluorobenzamido)hexanoyl)piperazine-1-carboxylate], the IC50 in experiment [1] (read-out: LNCap (IC50, nM)) was 10 to 100 nM; in experiment [2], 10 to 100 nM; in experiment [3] it was > 1000 nM; in experiment [4], > 1000 nM.
In the case of `CC[C@@]1(O)C(=O)OCc2c1cc1n(c2=O)Cc2cc3c(CN(C)C)c(OC(=O)N4C[C@H](C)N(C(=O)C5CCN(c6ccc(C(=O)N[C@H]7CC[C@H](N(C)c8ccc(C#N)c(Cl)c8)CC7)nn6)CC5)C[C@H]4C)ccc3nc2-1` [Compound No. 17, (S)-10-((Dimethylamino)methyl)-4-ethyl-4-hydroxy-3,14-dioxo-3,4,12,14-tetrahydro-1H-pyrano[3′,4′:6,7]indolizino[1,2-b]quinolin-9-yl (2R,5S)-4-(1-(6-(((1r,4r)-4-((3-chloro-4-cyanophenyl)(methyl)-amino)cyclohexyl)carbamoyl)pyridazin-3-yl)piperidine-4-carbonyl)-2,5-dimethylpiperazine-1-carboxylate], the IC50 was 101 to 1000 nM in experiment [1] (read-out: LNCap (IC50, nM)); 101 to 1000 nM in experiment [2]; > 1000 nM in experiment [3]; 10 to 100 nM in experiment [4].
For the compound `CC[C@@]1(O)C(=O)OCc2c1cc1n(c2=O)Cc2cc3c(CN4CCN(C(=O)C5CCN(c6ccc(C(=O)N[C@H]7CC[C@H](Oc8ccc(C#N)c(Cl)c8)CC7)nn6)CC5)CC4)c(OC(=O)N4CCC(N5CCCCC5)CC4)ccc3nc2-1` [Compound No. 13, (S)-10-((4-(1-(6-(((1r,4r)-4-(3-Chloro-4-cyanophenoxy)cyclohexyl)carbamoyl)pyridazin-3-yl)piperidine-4-carbonyl)piperazin-1-yl)methyl)-4-ethyl-4-hydroxy-3,14-dioxo-3,4,12,14-tetrahydro-1H-pyrano[3′,4′:6,7]indolizino[1,2-b]quinolin-9-yl [1,4′-bipiperidine]-1′-carboxylate], the IC50 in experiment [1] (read-out: LNCap (IC50, nM)) was > 1000 nM; in experiment [2], > 1000 nM; in experiment [3], > 1000 nM; in experiment [4], 10 to 100 nM.
With `CC[C@@]1(O)C(=O)OCc2c1cc1n(c2=O)Cc2cc3c(CN4CCN(C(=O)C5CCN(c6ccc(C(=O)N[C@H]7CC[C@H](N(C)c8ccc(C#N)c(Cl)c8)CC7)nn6)CC5)CC4)c(O)ccc3nc2-1` [Compound No. 15, N-((1r,4r)-4-((3-Chloro-4-cyanophenyl)(methyl)amino)cyclohexyl)-6-(4-(4-(((S)-4-ethyl-4,9-dihydroxy-3,14-dioxo-3,4,12,14-tetrahydro-1H-pyrano[3′,4′:6,7]indolizino[1,2-b]quinolin-10-yl)methyl)-piperazine-1-carbonyl)piperidin-1-yl)pyridazine-3-carboxamide], the IC50 in experiment [1] (setting [5]) is 10 to 100 nM; in experiment [2] it was 10 to 100 nM; in experiment [3] it was > 1000 nM; in experiment [4], < 10 nM.
Regarding `CC[C@@]1(O)C(=O)OCc2c1cc1n(c2=O)Cc2cc3c(CN(C)C)c(OC(=O)N4CCN(C(=O)C5CCN(c6ccc(C(=O)N[C@H]7CC[C@H](N(C)c8ccc(C#N)c(Cl)c8)CC7)nn6)CC5)CC4)ccc3nc2-1` [Compound No. 11, (S)-10-((Dimethylamino)methyl)-4-ethyl-4-hydroxy-3,14-dioxo-3,4,12,14-tetrahydro-1H-pyrano[3′,4′:6,7]indolizino[1,2-b]quinolin-9-yl 4-(1-(6-(((1r,4r)-4-((3-chloro-4-cyanophenyl)(methyl)amino)-cyclohexyl)carbamoyl)pyridazin-3-yl)piperidine-4-carbonyl)piperazine-1-carboxylate], the IC50 was 10 to 100 nM in experiment [1] (read-out: LNCap (IC50, nM)); 10 to 100 nM in experiment [2]; 101 to 1000 nM in experiment [3]; < 10 nM in experiment [4].
In the case of `CC[C@@]1(O)C(=O)OCc2c1cc1n(c2=O)Cc2cc3c(CN4CCN(CC5CCN(c6ccc(C(=O)N[C@H]7CC[C@H](N(C)c8ccc(C#N)c(Cl)c8)CC7)nn6)CC5)CC4)c(O)ccc3nc2-1` [Compound 28, N-((1r,4r)-4-((3-Chloro-4-cyanophenyl)(methyl)amino)cyclohexyl)-6-(4-((4-(((S)-4-ethyl-4,9-dihydroxy-3,14-dioxo-3,4,12,14-tetrahydro-1H-pyrano[3′,4′:6,7]indolizino[1,2-b]quinolin-10-yl)methyl)piperazin-1-yl)methyl)piperidin-1-yl)pyridazine-3-carboxamide], the IC50 in experiment [1] (setting [5]), in experiment [2] and in experiment [4] was 10 to 100 nM each time.
Consider `CC[C@@]1(O)C(=O)OCc2c1cc1n(c2=O)Cc2cc3c(CN(C)C(=O)C(C)(C)N(C)C(=O)CO[C@H]4CC[C@H]5[C@@H]6CC[C@H]7CC(=O)CC[C@]7(C)[C@H]6CC[C@]45C)c(O)ccc3nc2-1` [Compound 4, 2-(2-(((5S,8R,9S,10S,13S,14S,17S)-10,13-Dimethyl-3-oxohexadecahydro-1H-cyclopenta[a]phenanthren-17-yl)oxy)-N-methylacetamido)-N—(((S)-4-ethyl-4,9-dihydroxy-3,14-dioxo-3,4,12,14-tetrahydro-1H-pyrano[3′,4′:6,7]indolizino[1,2-b]quinolin-10-yl)methyl)-N,2-dimethylpropanamide], for which the IC50 in experiment [1] (setting [5]) and in experiment [2] was 101 to 1000 nM throughout.
